# Columns and labels:
# [1] = Release (dissolution) profile of tablets, USP Apparatus 1 (baskets); type: physicochemical; details: for mean value (n = 6) of % of Compound 1 released: tablet, 25 mg Methocel K100 Premium LVCR
# Source text: USP Apparatus 1 (BASKETS) is described, for example, in the United States Pharmacopeial Convention, Feb. 1, 2012, Chapter <711> (“Dissolution”), incorporated by reference herein in its entirety. See http://www.usp.org/sites/default/files/usp_pdf/EN/USPNF/revisions/m99470-gc_711.pdf. The USP Apparatus 1 (baskets) assembly consists of the following: a vessel, which may be covered, made of glass or other inert, transparent material; a motor; a metallic drive shaft; and a cylindrical basket. The materials should not sorb, react, or interfere with the specimen being tested. The vessel is partially immersed in a suitable water bath of any convenient size or heated by a suitable device such as a heating jacket. The water bath or heating device permits holding the temperature inside the vessel at 37±0.5° during the test and keeping the bath fluid in constant, smooth motion. No part of the assembly, including the environment in which the assembly is placed, contributes significant motion, agitation, or vibration beyond that due to the smoothly rotating stirring element. An apparatus that permits observation of the specimen and stirring element during the test is preferable. The vessel is cylindrical, with a hemispherical bottom and with one of the following dimensions and capacities: for a nominal capacity of 1 L, the height is 160 mm to 210 mm and its inside diameter is 98 mm to 106 mm; for a nominal capacity of 2 L, the height is 280 mm to 300 mm and its inside diameter is 98 mm to 106 mm; and for a nominal capacity of 4 L, the height is 280 mm to 300 mm and its inside diameter is 145 mm to 155 mm. Its sides are flanged at the top. A fitted cover may be used to retard evaporation. If a cover is used, it provides sufficient openings to allow ready insertion of the thermometer and withdrawal of specimens. The shaft is positioned so that its axis is not more than 2 mm at any point from the vertical axis of the vessel and rotates smoothly and without significant wobble that could affect the results. The vertical center line of the blade passes through the axis of the shaft so that the bottom of the blade is flush with the bottom of the shaft. A distance of 25 f 2 mm between the bottom of the blade and the inside bottom of the vessel is maintained during the test. The metallic or suitably inert, rigid blade and shaft comprise a single entity. A suitable two-part detachable design may be used provided the assembly remains firmly engaged during the test.
# A speed-regulating device is used that allows the shaft rotation speed to be selected and maintained at the specified rate within +4%. Shaft and basket components of the stirring element are fabricated of stainless steel, type 316, or other inert material. A basket having a gold coating of about 0.0001 inch (2.5 μm) thick may be used. A dosage unit is placed in a dry basket at the beginning of each test. The distance between the inside bottom of the vessel and the bottom of the basket is maintained at 25±2 mm during the test.
# The release profiles for modified-release tablets were measured using USP Apparatus 1 (baskets).
# All release profiles disclosed in Tables 6a-6d were measured with USP Apparatus 1 (baskets) at 100 rpm in 500 mL of aqueous sodium phosphate at a concentration of 0.05 M (pH=6.8). The values in a given table relate to tablets obtained from the same batch. Values shown represent mean values over a number of dissolution tests (“n” in each table) in each case.
# [2] = Open-label, fixed sequence single-dose pharmacokinetic study in healthy subjects (Example 7 A); type: in vivo, human
# Procedure: A. An open-label, fixed sequence, non-randomized study in two cohorts of healthy male and non-pregnant, non-lactating female subjects was conducted. Two cohorts with twelve subjects in each were enrolled to ensure data in ten evaluable subjects per cohort.
# Each subject in Cohort 1 received each of the following regimens, in the fasted state, in a sequential manner over four treatment periods: • Regimen A (0.03 mg immediate-release Compound 1): 1×0.03 mg Compound 1 immediate-release capsule. • Regimen B (0.06 mg modified-release Compound 1): 1×0.06 mg Compound 1 modified-release tablet as disclosed herein. • Regimen C (0.12 mg modified-release Compound 1): 2×0.06 mg Compound 1 modified-release tablets as disclosed herein. • Regimen D (0.18 mg modified-release Compound 1) 3×0.06 mg Compound 1 modified-release tablets as disclosed herein.
# Subjects received each regimen in the morning of Day 1, following an overnight fast of a minimum of 8 hours. PK samples were taken from subjects at 72 hours post-dose. There was a minimum washout period of 7 days between each administration of investigational medicinal product (IMP) (i.e., selexipag film-coated tablet(s), Compound 1 immediate-release capsule(s), and/or Compound 1 modified-release tablet(s)).
# For Cohort 1, subjects received Regimens […] in a sequential manner at consecutive treatment periods.
# Venous blood samples were withdrawn at regular time intervals. Plasma concentration data for Compound 1 and the selexipag parent and active metabolite were analyzed using appropriate non-compartmental techniques to obtain estimates of one or more of the following parameters: • Tlag • Tmax • Cmax • C12 • C24 • AUC(0-last) • AUC(0-inf) • AUC % extrap • lambda-z • T1/2e1 • CL/F • Frel: relative bioavailability of 0.06 mg Compound 1 tablets compared to the reference 0.03 mg Compound 1 capsule Pharmacodynamic Assessments:
# One or more of the above pharmacokinetic parameters were determined at one or more of the following time points: pre-dose and (referring to hours after administration): 0.5, 1, 1.5, 2, 3, 4, 5, 6, 8, 10, 12, 16, 20, 24, 36, 48, and 72 hours.
# [3] = 0.06-0.18 mg modified-release tablets vs 0.03 mg immediate-release capsule
# [4] = single oral dose, fasted healthy subjects
smiles,measurement,setting,value
"O=C(O)COC[C@H]1CC[C@H](COC(=O)N(c2ccccc2)c2ccc(Cl)cc2)CC1 [Compound 1, 2-(((1r,4r)-4-(((4-chlorophenyl)(phenyl)carbamoyloxy)methyl)cyclohexyl)methoxy)acetic acid]",release rate of tablets relative to modified-release capsule,[1]; 0.5 mg tablet with 40% HPMC K4M CR,faster
same,mean value (n = 6) of % of Compound 1 released,"[1]; Table 6a: initial release profile, 0.05 mg Compound 1, 25 mg Methocel K4M Premium CR, 60 min",6.9%
same,mean value (n = 6) of % of Compound 1 released,"[1]; Table 6a: initial release profile, 0.05 mg Compound 1, 25 mg Methocel K4M Premium CR, 120 min",25.3%
same,mean value (n = 6) of % of Compound 1 released,"[1]; Table 6a: initial release profile, 0.05 mg Compound 1, 25 mg Methocel K4M Premium CR, 180 min",35.8%
same,mean value (n = 6) of % of Compound 1 released,"[1]; Table 6a: initial release profile, 0.05 mg Compound 1, 25 mg Methocel K4M Premium CR, 240 min",45.1%
same,mean value (n = 6) of % of Compound 1 released,"[1]; Table 6a: initial release profile, 0.05 mg Compound 1, 25 mg Methocel K4M Premium CR, 360 min",62%
same,mean value (n = 6) of % of Compound 1 released,"[1]; Table 6a: initial release profile, 0.05 mg Compound 1, 25 mg Methocel K4M Premium CR, 480 min",74.8%
same,mean value (n = 6) of % of Compound 1 released,"[1]; Table 6a: initial release profile, 0.05 mg Compound 1, 25 mg Methocel K4M Premium CR, 600 min",86.6%
same,mean value (n = 6) of % of Compound 1 released,"[1]; Table 6a: initial release profile, 0.05 mg Compound 1, 25 mg Methocel K4M Premium CR, 840 min",100.4%
same,mean value (n = 6) of % of Compound 1 released,"[1]; Table 6b: initial release profile, 0.5 mg Compound 1, 25 mg Methocel K4M Premium CR, 60 min",17.9%
same,mean value (n = 6) of % of Compound 1 released,"[1]; Table 6b: initial release profile, 0.5 mg Compound 1, 25 mg Methocel K4M Premium CR, 120 min",27.3%
same,mean value (n = 6) of % of Compound 1 released,"[1]; Table 6b: initial release profile, 0.5 mg Compound 1, 25 mg Methocel K4M Premium CR, 180 min",36.9%
same,mean value (n = 6) of % of Compound 1 released,"[1]; Table 6b: initial release profile, 0.5 mg Compound 1, 25 mg Methocel K4M Premium CR, 240 min",45.5%
same,mean value (n = 6) of % of Compound 1 released,"[1]; Table 6b: initial release profile, 0.5 mg Compound 1, 25 mg Methocel K4M Premium CR, 360 min",61.1%
same,mean value (n = 6) of % of Compound 1 released,"[1]; Table 6b: initial release profile, 0.5 mg Compound 1, 25 mg Methocel K4M Premium CR, 480 min",74.2%
same,mean value (n = 6) of % of Compound 1 released,"[1]; Table 6b: initial release profile, 0.5 mg Compound 1, 25 mg Methocel K4M Premium CR, 600 min",84.8%
same,mean value (n = 6) of % of Compound 1 released,"[1]; Table 6b: initial release profile, 0.5 mg Compound 1, 25 mg Methocel K4M Premium CR, 840 min",98.1%
same,mean value (n = 6) of % of Compound 1 released,"[1]; Table 6c: after storage at 40° C. and 75% RH for 6 months, 0.05 mg Compound 1, 25 mg Methocel K4M Premium CR, 60 min",17%
same,mean value (n = 6) of % of Compound 1 released,"[1]; Table 6c: after storage at 40° C. and 75% RH for 6 months, 0.05 mg Compound 1, 25 mg Methocel K4M Premium CR, 120 min",27.1%
same,mean value (n = 6) of % of Compound 1 released,"[1]; Table 6c: after storage at 40° C. and 75% RH for 6 months, 0.05 mg Compound 1, 25 mg Methocel K4M Premium CR, 180 min",36.9%
same,mean value (n = 6) of % of Compound 1 released,"[1]; Table 6c: after storage at 40° C. and 75% RH for 6 months, 0.05 mg Compound 1, 25 mg Methocel K4M Premium CR, 240 min",45.4%
same,mean value (n = 6) of % of Compound 1 released,"[1]; Table 6c: after storage at 40° C. and 75% RH for 6 months, 0.05 mg Compound 1, 25 mg Methocel K4M Premium CR, 360 min",61.1%
same,mean value (n = 6) of % of Compound 1 released,"[1]; Table 6c: after storage at 40° C. and 75% RH for 6 months, 0.05 mg Compound 1, 25 mg Methocel K4M Premium CR, 480 min",75.8%
same,mean value (n = 6) of % of Compound 1 released,"[1]; Table 6c: after storage at 40° C. and 75% RH for 6 months, 0.05 mg Compound 1, 25 mg Methocel K4M Premium CR, 600 min",86.9%
same,mean value (n = 6) of % of Compound 1 released,"[1]; Table 6c: after storage at 40° C. and 75% RH for 6 months, 0.05 mg Compound 1, 25 mg Methocel K4M Premium CR, 840 min",100%
same,mean value (n = 6) of % of Compound 1 released,"[1]; Table 6d: after storage at 40° C. and 75% RH for 6 months, 0.5 mg Compound 1, 25 mg Methocel K4M Premium CR, 60 min",6.8%
same,mean value (n = 6) of % of Compound 1 released,"[1]; Table 6d: after storage at 40° C. and 75% RH for 6 months, 0.5 mg Compound 1, 25 mg Methocel K4M Premium CR, 120 min",24.3%
same,mean value (n = 6) of % of Compound 1 released,"[1]; Table 6d: after storage at 40° C. and 75% RH for 6 months, 0.5 mg Compound 1, 25 mg Methocel K4M Premium CR, 180 min",33%
same,mean value (n = 6) of % of Compound 1 released,"[1]; Table 6d: after storage at 40° C. and 75% RH for 6 months, 0.5 mg Compound 1, 25 mg Methocel K4M Premium CR, 240 min",41.3%
same,mean value (n = 6) of % of Compound 1 released,"[1]; Table 6d: after storage at 40° C. and 75% RH for 6 months, 0.5 mg Compound 1, 25 mg Methocel K4M Premium CR, 360 min",55.5%
same,mean value (n = 6) of % of Compound 1 released,"[1]; Table 6d: after storage at 40° C. and 75% RH for 6 months, 0.5 mg Compound 1, 25 mg Methocel K4M Premium CR, 480 min",67.9%
same,mean value (n = 6) of % of Compound 1 released,"[1]; Table 6d: after storage at 40° C. and 75% RH for 6 months, 0.5 mg Compound 1, 25 mg Methocel K4M Premium CR, 600 min",79.4%
same,mean value (n = 6) of % of Compound 1 released,"[1]; Table 6d: after storage at 40° C. and 75% RH for 6 months, 0.5 mg Compound 1, 25 mg Methocel K4M Premium CR, 840 min",94.7%
same,change of release profile following storage over time,"[1]; modified-release tablets (FIGS. 12-14), storage at 40° C. and 75% RH for six months",did not change significantly
same,release rate of tablets relative to modified-release capsule,[1]; tablet with 30% HPMC K4M and 20% HPMC K100 LVCR,slightly faster
same,release rate of tablets relative to modified-release capsule,"[1]; tablet with 40% HPMC K4M and 10% HPMC K100 LVCR, time points <6 hrs",faster
same,release rate of tablets relative to modified-release capsule,"[1]; tablet with 40% HPMC K4M and 10% HPMC K100 LVCR, time points ≥6 hrs",slower
same,"difference of percentage by weight of compound released, initial vs after storage","[1]; tablets 0.05 mg and 0.5 mg (FIGS. 12 and 13), storage at 40° C. and 75% RH for six months, any time point equal to or greater than 2 hours",≤ 10%
same,dose-adjusted total exposure (AUC(0-last)) compared to 0.03 mg immediate release capsule,[2]; 0.18 mg modified-release tablet,similar
same,relative bioavailability based on individual dose-adjusted Cmax vs immediate-release capsule,"[2]; 0.06, 0.12 and 0.18 mg modified-release tablet",statistically significantly lower
same,"dose-adjusted peak plasma exposure (Cmax/D), geometric mean ratios modified-release vs immediate-release",[2]; [3],28.7-41.2%
same,"dose-adjusted total plasma exposure (AUC/D), geometric mean ratios modified-release vs immediate-release",[2]; [3],63.3-97.9%
same,relative bioavailability based on individual dose-adjusted AUC(0-last) vs immediate-release capsule,[2]; 0.06 and 0.12 mg modified-release tablet,statistically significantly lower
same,half-life,"[2]; both sexes, human, plasma, oral, modified-release tablets, across all dose levels (0.06, 0.12, 0.18 mg), read-out: geometric mean half-life",19 to 23 h
same,Tmax,"[2]; both sexes, human, plasma, single oral administration of 0.06, 0.12 and 0.18 mg modified-release tablets, read-out: median Tmax",4 to 10 h
same,plasma concentrations at 24 hours post-dose compared to immediate-release formulation,[2]; modified-release tablet formulation,higher
same,increase of systemic exposure (Cmax and AUC) with dose,[2]; oral modified-release tablet formulation,slightly higher than dose-proportional
same,"Cmax, modified-release tablet vs immediate-release capsule",[2]; [4],reduced
same,"Tmax, modified-release tablet vs immediate-release capsule",[2]; [4],increased
same,"total plasma concentrations, modified-release tablet vs immediate-release capsule",[2]; [4],similar

# Source: patent US12433865B2, “Compositions comprising PGI2-receptor agonists and processes for the preparation thereof” (Arena Pharmaceuticals, Inc., priority 2018, dated 2025)
